Reference: US8455528B2, “Imidazole derivatives useful as inhibitors of FAAH” (Merck Sharp & Dohme Corp., priority 2008, dated 2013)

Experiments:
Rat FAAH = target: T1, Rat FAAH (Rattus norvegicus, UniProt P97612); assay: Rat FAAH whole cell assay (FAAH_CHO cells); type: cell-based; conditions: FAAH inhibition, whole CHO cells expressing rat FAAH
T1 construct: expressed in transfected cells
T1 sequence (P97612 1-579): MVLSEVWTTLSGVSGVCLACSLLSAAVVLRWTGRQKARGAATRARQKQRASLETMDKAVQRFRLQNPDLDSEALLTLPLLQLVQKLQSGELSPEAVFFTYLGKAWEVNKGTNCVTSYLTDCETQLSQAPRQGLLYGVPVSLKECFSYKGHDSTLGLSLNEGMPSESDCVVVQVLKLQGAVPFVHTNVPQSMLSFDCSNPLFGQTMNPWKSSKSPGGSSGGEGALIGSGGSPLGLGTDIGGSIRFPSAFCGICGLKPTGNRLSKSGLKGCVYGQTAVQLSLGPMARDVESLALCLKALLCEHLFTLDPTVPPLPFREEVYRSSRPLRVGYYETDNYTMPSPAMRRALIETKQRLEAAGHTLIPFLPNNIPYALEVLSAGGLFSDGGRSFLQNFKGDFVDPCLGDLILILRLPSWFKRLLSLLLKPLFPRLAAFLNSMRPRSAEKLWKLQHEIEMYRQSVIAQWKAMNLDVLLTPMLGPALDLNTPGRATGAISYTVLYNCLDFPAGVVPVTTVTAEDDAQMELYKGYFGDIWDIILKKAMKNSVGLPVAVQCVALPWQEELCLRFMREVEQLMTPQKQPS
Source text: (§1) Murine (accession number NM_010173) and Rat FAAH (accession number NM_024132) was amplified by reverse transcriptase polymerase chain reaction (RT-PCR) from brain cDNA (BD Biosciences, San Jose, Calif.) using primers 1 and 2 or primers 1 and 3 respectively (see Table). The resulting PCR product was ligated into pCR4 TOPO and DNA sequence confirmed. The full length murine FAAH was subcloned into the mammalian expression vector, pcDEFneo using either EcoRI (murine) or KpnI and EcoRI (rat) restriction sites. Chinese hamster ovary cells (CHO) were transfected following manufacturers protocol (AMAXA). Forty eight hours post transfection, cells were trypsinized and transferred to 96 well plates in Iscove's DMEM media supplemented with 2 mM Glutamine, 10% fetal calf serum, 1 mg/ml geneticin and HT Supplement (0.1 mM sodium hypoxanthine, 0.016 mM thymidine) in order to isolate single clones. Following selection in geneticin, individual clones were selected and FAAH activity was assessed using a whole cell fluorescent anandamide assay, modified from Ramarao et al (2005). Following removal of tissue culture media cells were dislodged following addition of Cellstripper (Mediatech, Inc. Manassas, Va.) and transferred to 96 well black clear bottom assay plate, centrifuged at 1,000 rpm for 3 mins and media removed and replaced with assay buffer (50 mM Tris pH8.0, 1 mM EDTA, 0.1% fatty acid free BSA). The reaction was initiated by addition of fluorescent substrate, AMC Arachidonoyl Amide (Cayman Chemical, Ann Arbor, Mich.) to 1 μM and reaction allowed to proceed for 2 hours at room temperature. Release of fluorescence was monitored in a CytoFluor Multiplate Reader. Cells expressing the highest amount of FAAH activity were selected for study with FAAH inhibitors.
(§2) (American Radiolabeled Chemicals; 1 mCi/ml) with FAAH (Life Sciences (1995), 56, 1999-2005 and Journal of Pharmacology and Experimented Therapeutics (1997), 283, 729-734), Analytical. Biochemistry (2003), 318, 270-5. In addition, routine assays were performed monitoring hydrolysis of arachidonyl-7-amino-4-methylcoumarin amide (AAMCA) by following increase in fluorescence upon release of 7-amino 4-methyl coumarin (λEX=355 nm, (λEM=460 nm). Analytical. Biochemistry (2005). 343, 143-51
(§3) Assays are performed on either cell lysate or microsome fractions prepared as described or in whole cell format employing either the fluorescent substrate AAMCA (Cayman chemical, Ann Arbor, Mich.) or ^3H-anandmaide ([ETHANOLAMINE-1-3H] American Radiolabeled Chemicals; 1 mCi/ml). The cell lysate or microsome assay is performed in Costar black wall, clear bottom plates by adding FAAH_CHO (whole cell, cell lysate or microsome) in assay buffer (50 mM Phosphate, pH 8.0, 1 mM EDTA, 200 mM KCl, 0.2% glycerol, 0.1% fatty acid free BSA) to each well, followed by either DMSO or compound and allowed to incubate at 22-25° C. for fifteen minutes. AAMCA substrate was used to achieve a final concentration of 1 μM and reaction allowed to proceed at room temperature for 1-3 hours. Fluorescent release as a measure of FAAH activity was monitored by reading the plate in a CytoFluor Multiplate Reader ([…]). Whole cell assay is conducted with cells harvested after rinsing tissue culture flasks three times with Ca^++Mg^++ free PBS, incubating for 10 min in Enzyme free dissociation media and centrifuging for 5 minutes at 1,000 rpm in table top centrifuge. Cells are resuspended in assay buffer at desired cell number in (4×10^4 cells/assay in 96-well format; 1×10^4 cells/assay in 384-well format) and assayed as described.

Human FAAH = target: T2, Human FAAH (Homo sapiens, UniProt O00519); assay: Human FAAH whole cell assay (FAAH_CHO cells); type: cell-based; conditions: FAAH inhibition, whole CHO cells expressing human FAAH
T2 construct: The full length FAAH was subcloned into the mammalian expression vector, pcDEF.neo; expressed in transfected cells
T2 sequence (O00519 1-579): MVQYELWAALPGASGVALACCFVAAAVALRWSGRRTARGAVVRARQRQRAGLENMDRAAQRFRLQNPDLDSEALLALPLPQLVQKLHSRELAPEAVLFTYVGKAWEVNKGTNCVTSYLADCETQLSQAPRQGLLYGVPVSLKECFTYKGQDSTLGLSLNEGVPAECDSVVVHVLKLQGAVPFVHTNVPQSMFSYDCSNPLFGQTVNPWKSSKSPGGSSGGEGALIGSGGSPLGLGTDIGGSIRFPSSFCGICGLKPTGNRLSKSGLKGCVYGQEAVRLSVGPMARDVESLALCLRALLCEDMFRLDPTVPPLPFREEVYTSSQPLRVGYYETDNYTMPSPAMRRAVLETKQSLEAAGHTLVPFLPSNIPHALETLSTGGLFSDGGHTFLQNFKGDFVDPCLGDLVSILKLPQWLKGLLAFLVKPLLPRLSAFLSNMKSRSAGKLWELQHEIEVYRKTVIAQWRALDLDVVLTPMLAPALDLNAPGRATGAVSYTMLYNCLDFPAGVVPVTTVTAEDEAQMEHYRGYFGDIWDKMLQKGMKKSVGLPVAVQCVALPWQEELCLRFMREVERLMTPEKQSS
Source text: To assist in assay development stable cell lines for human, murine and rat full length FAAH were developed. Human FAAH cDNA (Accession No: NM_001441.1) was purchased from Origene (Rockville, Md.). The full length FAAH was subcloned into the mammalian expression vector, pcDEF.neo, using XbaI and EcoRI restriction sites and used for stable cell line generation.
as §1, §2, §3

| SMILES | IC50 (Rat FAAH) | IC50 (Human FAAH) |
| --- | --- | --- |
| Cn1c(-c2ccccc2)nc(-c2ccc(C#N)cc2)c1Sc1ccc(Cl)cc1 [Ex 2, 4-{5-[(4-Chlorophenyl)thio]-1-methyl-2-phenyl-1H-imidazol-4-yl}benzonitrile] | 30.1 nM | 84.8 nM |
| CS(=O)(=O)c1ccc(-c2nc(C3CCC3)[nH]c2Sc2ccc(Cl)cc2)cc1 [Ex 13] | 702 nM | 3000 nM |
| Cn1c(C2CCC2)nc(-c2ccc(S(C)(=O)=O)cc2)c1Sc1ccc(Cl)cc1 [Ex 14] | 146 nM | 107 nM |
| CC(C)c1nc(-c2ccc(S(C)(=O)=O)cc2)c(Sc2ccc(Cl)cc2)n1C [Ex 29, 5-[(4-Chlorophenyl)thio]-2-isopropyl-1-methyl-4-[4-(methylsulfonyl)phenyl]-1H-imidazole] | 105 nM | 480 nM |
| Cn1cnc(-c2ccc(C#N)cc2)c1Sc1ccc(Cl)cc1 [Ex 33, 4-{5-[(4-chlorophenyl)thio]-1-methyl-1H-imidazol-4-yl}benzonitrile] | 1210 nM | 2980 nM |
| Cn1c(-c2ccccn2)nc(-c2ccc(-c3nnco3)cc2)c1Sc1ccc(Cl)cn1 [Ex 36, 5-Chloro-2-({1-methyl-4-[4-(1,3,4-oxadiazol-2-yl)phenyl]-2-pyridin-2-yl-1H-imidazol-5-yl}thio)pyridine] | 63.4 nM | 48.6 nM |
| Cn1c(-c2ccccn2)nc(-c2ccc(C(O)C(F)F)cc2)c1Sc1ccc(Cl)cc1 (stereo not drawn) [Ex 57, 1-(4-{5-[(4-Chlorophenyl)thio]-1-methyl-2-pyridin-2-yl-1H-imidazol-4-yl}phenyl)-2,2-difluoroethanol] | 59.6 nM | 67.8 nM |
| Cn1c(-c2ccccn2)nc(-c2ccc(-n3ccnn3)cc2)c1Sc1ccc(Cl)cc1 [Ex 66] | 31.9 nM | 52.2 nM |
| Cn1c(-c2ccccn2)nc(-c2ccc(N)cc2)c1Sc1ccc(Cl)cc1 [Ex 98, 4-{5-[(4-Chlorophenyl)thio]-1-methyl-2-pyridin-2-yl-1H-imidazol-4-yl}aniline] | 870 nM | 1000 nM |
